Values after ≈ are worked out from the molar mass of the structure shown. Active and inactive are the calls of the source. No cut-off for these calls is given here.

The subject of assay [1] is Cryptococcus neoformans. Put plainly: Antifungal activity against Cryptococcus neoformans H99 assessed as reduction in fungal growth. The assay is classed as functional.
For assay [2], the system named is [Candida] auris. Put plainly: Antifungal activity against Candida auris 0029 assessed as reduction in fungal growth. The assay is classed as functional. Conditions: Candidozyma auris.
The subject of assay [3] is [Candida] auris. Put plainly: Antifungal activity against Candida auris ATCC 15448 assessed as reduction in fungal growth. The assay is classed as functional. Conditions: Candidozyma auris.
For assay [4], the system named is Cryptococcus neoformans. The assay can be described thus: Antifungal activity against Cryptococcus neoformans H99 assessed as inhibition of cell growth at 16 microg/ml measured for 72 hrs. The assay is classed as functional, organism-based. Conditions: dose 16.0 µg/ml.
The test system of assay [5] is [Candida] auris. The assay can be described thus: Antifungal activity against Candida auris 0029 assessed as inhibition of cell growth at 16 microg/ml measured for 72 hrs. The assay is classed as functional. The following applies: Candidozyma auris, dose 16.0 µg/ml.
The test system of assay [6] is Cryptococcus neoformans. The assay can be described thus: Fungicidal activity against Cryptococcus neoformans H99. The format is functional.
Assay [7] concerns [Candida] auris. The assay can be described thus: Fungicidal activity against Candida auris 0029. Conditions: Candidozyma auris. The format is functional.
Assay [8] has as its system [Candida] auris. Put plainly: Antibiofilm activity against Candida auris 0029 assessed as inhibition of biofilm formation at 64 microg/ml incubated for 24 hrs by XTT reduction assay. The following applies: Candidozyma auris, dose 64.0 µg/ml. The assay is classed as functional.
The test system of assay [9] is Cryptococcus neoformans. The assay can be described thus: Antibiofilm activity against Cryptococcus neoformans H99 assessed as inhibition of capsule formation at 4 microg/ml incubated for 48 hrs by laser confocal microscopic analysis. The assay is classed as functional, organism-based. The following applies: dose 4.0 µg/ml.
The test system of assay [10] is Cryptococcus neoformans. Put plainly: Antifungal activity against Cryptococcus neoformans H99 assessed as reduction in fungal growth incubated for 72 hrs in presence of 1 uM Fe2+. The assay is classed as functional.
Assay [11] deals with Cryptococcus neoformans. Put plainly: Antifungal activity against Cryptococcus neoformans H99 assessed as reduction in fungal growth incubated for 72 hrs in presence of 5 uM Fe2+. The format is functional.
Assay [12] has as its system Cryptococcus neoformans. The assay can be described thus: Antifungal activity against Cryptococcus neoformans H99 assessed as reduction in fungal growth incubated for 72 hrs in presence of 10 uM Fe2+. The assay is classed as functional.
The subject of assay [13] is Cryptococcus neoformans. Put plainly: Antifungal activity against Cryptococcus neoformans H99 assessed as reduction in fungal growth incubated for 72 hrs in presence of 20 uM Fe2+. The format is functional.
For assay [14], the system named is Cryptococcus neoformans. The assay can be described thus: Antifungal activity against Cryptococcus neoformans H99 assessed as reduction in fungal growth incubated for 72 hrs in presence of 40 uM Fe2+. The assay is classed as functional.
The subject of assay [15] is Cryptococcus neoformans. The assay can be described thus: Antifungal activity against Cryptococcus neoformans H99 assessed as reduction in fungal growth incubated for 72 hrs in presence of 80 uM Fe2+. The format is functional.
Assay [16] relates to [Candida] auris. Put plainly: Effect on sterol composition in Candida auris 0029 assessed as ergosterol content at 1 microg/ml measured after 24 hrs by GC-MS analysis (reference value: 100 %). The format is functional, Candidozyma auris. The following applies: dose 1 µg/ml.
The subject of assay [17] is Cryptococcus neoformans. The assay can be described thus: Effect on sterol composition in Cryptococcus neoformans H99 assessed as ergosterol content at 1 microg/ml measured after 24 hrs by GC-MS analysis (reference value: 58.53%). The assay is classed as functional. The following applies: dose 1 µg/ml.
For assay [18], the system named is Cryptococcus neoformans. Put plainly: Effect on sterol composition in Cryptococcus neoformans H99 assessed as lanosterol content at 1 microg/ml measured after 24 hrs by GC-MS analysis. The format is functional. The following applies: dose 1 µg/ml.
For assay [19], the system named is Cryptococcus neoformans. Put plainly: Effect on sterol composition in Cryptococcus neoformans H99 assessed as eburicol content at 1 microg/ml measured after 24 hrs by GC-MS analysis. The format is functional. The following applies: dose 1 µg/ml.
Assay [20] concerns Cryptococcus neoformans. Put plainly: Effect on sterol composition in Cryptococcus neoformans H99 assessed as other sterols content at 1 microg/ml measured after 24 hrs by GC-MS analysis (reference value: 41.47%). The format is functional. Conditions: dose 1 µg/ml.

With `OC(Cn1cncn1)(Cn1cncn1)c1ccc(F)cc1F` [FLUCONAZOLE], the MIC80 is 2 µg/mL (≈ 6.53 µM) in the assay with Cryptococcus neoformans [1], more than 64 µg/mL in assay [Candida] auris [2] and 16 µg/mL (≈ 52.2 µM) in assay [Candida] auris [3]. For the same compound, the result in the assay with Cryptococcus neoformans [4] was Active. For the same compound, the result (in assay [Candida] auris [5]; in the assay with Cryptococcus neoformans [6]; in [Candida] auris [7]; in assay [Candida] auris [8]; with Cryptococcus neoformans [9]) was inactive. Also, the MIC in the assay with Cryptococcus neoformans [10] is 2 µg/mL; in the assay with Cryptococcus neoformans [11], 2 µg/mL; in the assay with Cryptococcus neoformans [12], 4 µg/mL; with Cryptococcus neoformans [13], 4 µg/mL; in the assay on Cryptococcus neoformans [14], 4 µg/mL; in the assay on Cryptococcus neoformans [15], 4 µg/mL. The Activity is given as 100% in assay [Candida] auris [16]; 42.51% in the assay on Cryptococcus neoformans [17]; 4.24% with Cryptococcus neoformans [18]; 48.28% in the assay on Cryptococcus neoformans [19]; 4.97% in the assay on Cryptococcus neoformans [20].
